According to patent publication US10780090B2, “Heteroaryl compounds useful as inhibitors of SUMO activating enzyme” (Millennium Pharmaceuticals, Inc., priority 2014, dated 2020):

Biological target: recombinant human SAE enzyme (Homo sapiens (Human), UniProt Q9UBT2)
Assay: SAE HTRF enzyme assay
Type: biochemical
Settings: for Percent Inhibition: Concentration 0.111 μM; for IC50: class symbols A/B/C
Summary of the method: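 This HTRF format monitors Sumo-Flag–Ubc9-GST thioester formation catalysed by 0.11 nM human SAE with 0.5 μM ATP over 105 min at 24° C. Inhibition is expressed at a single concentration or as IC50.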

Sequence of recombinant human SAE enzyme (Q9UBT2 whole entry): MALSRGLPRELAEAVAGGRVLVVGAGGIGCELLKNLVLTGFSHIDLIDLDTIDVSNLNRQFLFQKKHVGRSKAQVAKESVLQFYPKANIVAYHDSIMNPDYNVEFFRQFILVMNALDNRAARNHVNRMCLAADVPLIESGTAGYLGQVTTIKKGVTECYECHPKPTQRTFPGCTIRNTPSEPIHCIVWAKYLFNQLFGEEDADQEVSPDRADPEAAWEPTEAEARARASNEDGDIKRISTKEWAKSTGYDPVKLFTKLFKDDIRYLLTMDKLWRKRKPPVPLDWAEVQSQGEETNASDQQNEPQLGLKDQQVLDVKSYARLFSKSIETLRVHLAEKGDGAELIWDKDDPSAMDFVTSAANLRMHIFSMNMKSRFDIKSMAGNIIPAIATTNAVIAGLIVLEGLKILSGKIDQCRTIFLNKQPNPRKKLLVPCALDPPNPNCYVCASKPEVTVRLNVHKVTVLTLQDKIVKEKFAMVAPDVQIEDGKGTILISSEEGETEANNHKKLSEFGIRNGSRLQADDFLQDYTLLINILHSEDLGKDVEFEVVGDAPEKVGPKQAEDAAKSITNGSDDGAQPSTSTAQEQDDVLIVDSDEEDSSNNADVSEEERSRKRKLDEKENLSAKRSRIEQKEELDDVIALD
Sequence of recombinant human SAE enzyme (Q9UBE0 whole entry partner): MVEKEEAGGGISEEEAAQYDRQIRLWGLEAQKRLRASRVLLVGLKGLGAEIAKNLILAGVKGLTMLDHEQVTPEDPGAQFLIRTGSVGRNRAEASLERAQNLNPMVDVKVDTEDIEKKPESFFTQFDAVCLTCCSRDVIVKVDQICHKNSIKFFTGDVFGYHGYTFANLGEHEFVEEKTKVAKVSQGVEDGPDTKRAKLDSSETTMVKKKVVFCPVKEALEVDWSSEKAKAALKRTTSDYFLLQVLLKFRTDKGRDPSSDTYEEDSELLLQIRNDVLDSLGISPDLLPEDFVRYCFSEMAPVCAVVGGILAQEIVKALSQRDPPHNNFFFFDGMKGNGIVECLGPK

| Compound | Percent Inhibition | IC50 [nM] |
| --- | --- | --- |
| Cc1sc(C(=O)c2cncnc2N[C@@H]2C[C@H](COS(N)(=O)=O)[C@@H](O)C2)cc1[C@H](C)c1cccc(Cl)c1 (single isomer, unassigned) [I-135b, [(1R,2S,4R)-4-{[5-({4-[(1R)-1-(3-chlorophenyl)ethyl]-5-methyl-2-thienyl}carbonyl)pyrimidin-4-yl]amino}-2-hydroxycyclopentyl]methyl sulfamate or [(1R,2S,4R)-4-{[5-({4-[(1S)-1-(3-chlorophenyl)ethyl]-5-methyl-2-thienyl}carbonyl)pyrimidin-4-yl]amino}-2-hydroxycyclopentyl]methyl sulfamate] | 95 | < 10 |
| NS(=O)(=O)OC[C@H]1C[C@@H](Nc2ncncc2C(=O)c2cc(Cl)c([C@H](O)c3cccc(Cl)c3)s2)C[C@@H]1O (single isomer, unassigned) [I-151a, [(1R,2S,4R)-4-{[5-({4-chloro-5-[(R)-(3-chlorophenyl)(hydroxy)methyl]-2-thienyl}carbonyl)pyrimidin-4-yl]amino}-2-hydroxycyclopentyl]methyl sulfamate or [(1R,2S,4R)-4-{[5-({4-chloro-5-[(S)-(3-chlorophenyl)(hydroxy)methyl]-2-thienyl}carbonyl)pyrimidin-4-yl]amino}-2-hydroxycyclopentyl]methyl sulfamate] | 80 | 10 to 100 |
| NS(=O)(=O)OC[C@H]1C[C@@H](Nc2ncncc2C(=O)c2cc(Cl)c([C@H](O)c3cccc(Cl)c3)s2)C[C@@H]1O (single isomer, unassigned) [I-151b, [(1R,2S,4R)-4-{[5-({4-chloro-5-[(R)-(3-chlorophenyl)(hydroxy)methyl]-2-thienyl}carbonyl)pyrimidin-4-yl]amino}-2-hydroxycyclopentyl]methyl sulfamate or [(1R,2S,4R)-4-{[5-({4-chloro-5-[(S)-(3-chlorophenyl)(hydroxy)methyl]-2-thienyl}carbonyl)pyrimidin-4-yl]amino}-2-hydroxycyclopentyl]methyl sulfamate] | 93 | < 10 |
| CN(C)[C@H](c1cccc(Cl)c1)c1csc(C(=O)c2cncnc2N[C@@H]2C[C@H](COS(N)(=O)=O)[C@@H](O)C2)c1 (single isomer, unassigned) [I-153a, [(1R,2S,4R)-4-{[5-({4-[(R)-(3-chlorophenyl)(dimethylamino)methyl]-2-thienyl}carbonyl)pyrimidin-4-yl]amino}-2-hydroxycyclopentyl]methyl sulfamate or [(1R,2S,4R)-4-{[5-({4-[(S)-(3-chlorophenyl)(dimethylamino)methyl]-2-thienyl}carbonyl)pyrimidin-4-yl]amino}-2-hydroxycyclopentyl]methyl sulfamate] | 30 | 100 to 1000 |
| CN(C)[C@H](c1cccc(Cl)c1)c1csc(C(=O)c2cncnc2N[C@@H]2C[C@H](COS(N)(=O)=O)[C@@H](O)C2)c1 (single isomer, unassigned) [I-153b, [(1R,2S,4R)-4-{[5-({4-[(R)-(3-chlorophenyl)(dimethylamino)methyl]-2-thienyl}carbonyl)pyrimidin-4-yl]amino}-2-hydroxycyclopentyl]methyl sulfamate or [(1R,2S,4R)-4-{[5-({4-[(S)-(3-chlorophenyl)(dimethylamino)methyl]-2-thienyl}carbonyl)pyrimidin-4-yl]amino}-2-hydroxycyclopentyl]methyl sulfamate] | 92 | < 10 |
| Cc1sc(C(=O)c2cncnc2N[C@@H]2C[C@H](COS(N)(=O)=O)[C@@H](O)[C@H]2O)cc1[C@@H]1NCCc2ccc(Br)cc21 (single isomer, unassigned) [I-247a, [(1R,2R,3S,4R)-4-{[5-({4-[(1R)-7-bromo-1,2,3,4-tetrahydroisoquinolin-1-yl]-5-methyl-2-thienyl}carbonyl)pyrimidin-4-yl]amino}-2,3-dihydroxycyclopentyl]methyl sulfamate or [(1R,2R,3S,4R)-4-{[5-({4-[(1S)-7-bromo-1,2,3,4-tetrahydroisoquinolin-1-yl]-5-methyl-2-thienyl}carbonyl)pyrimidin-4-yl]amino}-2,3-dihydroxycyclopentyl]methyl sulfamate] | 100 | < 10 |
| Cc1sc(C(=O)c2cncnc2N[C@@H]2C[C@H](COS(N)(=O)=O)[C@@H](O)[C@H]2O)cc1[C@@H]1NCCc2ccc(Br)cc21 (single isomer, unassigned) [I-247b, [(1R,2R,3S,4R)-4-{[5-({4-[(1R)-7-bromo-1,2,3,4-tetrahydroisoquinolin-1-yl]-5-methyl-2-thienyl}carbonyl)pyrimidin-4-yl]amino}-2,3-dihydroxycyclopentyl]methyl sulfamate or [(1R,2R,3S,4R)-4-{[5-({4-[(1S)-7-bromo-1,2,3,4-tetrahydroisoquinolin-1-yl]-5-methyl-2-thienyl}carbonyl)pyrimidin-4-yl]amino}-2,3-dihydroxycyclopentyl]methyl sulfamate] | 98 | < 10 |
| Cc1sc(C(=O)c2cncnc2N[C@@H]2C[C@H](COS(N)(=O)=O)[C@@H](O)C2)cc1[C@H]1NCCc2ccc(Br)cc21 (single isomer, unassigned) [I-248a, [(1R,2S,4R)-4-{[5-({4-[(1S)-7-bromo-1,2,3,4-tetrahydroisoquinolin-1-yl]-5-methyl-2-thienyl}carbonyl)pyrimidin-4-yl]amino}-2-hydroxycyclopentyl]methyl sulfamate or [(1R,2S,4R)-4-{([5-({4-[(1R)-7-bromo-1,2,3,4-tetrahydroisoquinolin-1-yl]-5-methyl-2-thienyl}carbonyl)pyrimidin-4-yl]amino}-2-hydroxycyclopentyl]methyl sulfamate] | 99 | < 10 |
| Cc1sc(C(=O)c2cncnc2N[C@@H]2C[C@H](COS(N)(=O)=O)[C@@H](O)C2)cc1[C@H]1NCCc2ccc(Br)cc21 (single isomer, unassigned) [I-248b, [(1R,2S,4R)-4-{[5-({4-[(1S)-7-bromo-1,2,3,4-tetrahydroisoquinolin-1-yl]-5-methyl-2-thienyl}carbonyl)pyrimidin-4-yl]amino}-2-hydroxycyclopentyl]methyl sulfamate or [(1R,2S,4R)-4-{[5-({4-[(1R)-7-bromo-1,2,3,4-tetrahydroisoquinolin-1-yl]-5-methyl-2-thienyl}carbonyl)pyrimidin-4-yl]amino}-2-hydroxycyclopentyl]methyl sulfamate] | 95 | < 10 |
| NS(=O)(=O)OC[C@H]1C[C@@H](Nc2ncncc2C(=O)c2cc([C@@H]3NCCc4ccc(Cl)cc43)c(Cl)s2)[C@H](O)[C@@H]1O (single isomer, unassigned) [I-249a, [(1R,2R,3S,4R)-4-{[5-({5-chloro-4-[(1R)-7-chloro-1,2,3,4-tetrahydroisoquinolin-1-yl]-2-thienyl}carbonyl)pyrimidin-4-yl]amino}-2,3-dihydroxycyclopentyl]methyl sulfamate or [(1R,2R,3S,4R)-4-{[5-({5-chloro-4-[(1S)-7-chloro-1,2,3,4-tetrahydroisoquinolin-1-yl]-2-thienyl}carbonyl)pyrimidin-4-yl]amino}-2,3-dihydroxycyclopentyl]methyl sulfamate] | 100 | < 10 |
